Consider five compounds from patent US20250195513A1, “DEGRADATION OF IRAK4 BY CONJUGATION OF IRAK4 INHIBITORS WITH E3 LIGASE LIGAND AND METHODS OF USE” (BeiGene, Ltd., priority 2022, published 2025).

As a reminder, the Dmax is the greatest extent of degradation seen. As usually defined, the DC50 is the midpoint of the concentration-degradation curve.

The target of experiment [1] is T1, IRAK4 (Homo sapiens, UniProt Q9NWZ3).
T1 construct: endogenous in cells; host or cells: Karpas299
T1 sequence (Q9NWZ3 1-460): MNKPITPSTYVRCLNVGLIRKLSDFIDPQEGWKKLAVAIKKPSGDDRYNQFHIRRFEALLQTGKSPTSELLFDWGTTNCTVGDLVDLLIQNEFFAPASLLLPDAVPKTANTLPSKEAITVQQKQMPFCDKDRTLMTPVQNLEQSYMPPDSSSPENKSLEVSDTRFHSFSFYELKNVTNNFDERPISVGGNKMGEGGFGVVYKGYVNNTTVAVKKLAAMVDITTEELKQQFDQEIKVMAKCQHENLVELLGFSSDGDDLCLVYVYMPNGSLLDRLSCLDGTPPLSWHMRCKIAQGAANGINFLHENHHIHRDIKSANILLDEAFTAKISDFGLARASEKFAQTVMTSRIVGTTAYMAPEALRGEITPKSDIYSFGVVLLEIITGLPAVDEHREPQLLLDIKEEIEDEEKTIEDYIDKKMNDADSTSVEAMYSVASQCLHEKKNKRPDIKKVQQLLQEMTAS
The experiment is described as follows: IRAK4 Degradation Assay (Karpas299, HTRF/TR-FRET). The class given is cell-based. The following applies: Karpas-299 cells; for Dmax: maximum percentage of degradation. Summed up: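 Compound potency as DC50 (IC50) came from four-parameter fits of percent IRAK4 degradation. IRAK4 was measured by HTRF (665/620 nm) in lysates of Karpas299 cells seeded at 0.2 million per well. Cells had been treated with compound dilutions for 5 or 24 h.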

Experiment [2] addresses T1, IRAK4. Description: IRAK4 Degradation Assay with Human Serum (Karpas299, HTRF/TR-FRET). To be noted: Karpas-299 in human serum, 24 hrs treatment; for DC50: read-out: IRAK4 degradtion with human serum assay DC50; for Dmax: read-out: IRAK4 degradtion with human serum assay Dmax (%). The class given is cell-based. Summed up: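 Remaining IRAK4 measured by TR-FRET immunoassay on lysates of Karpas299 cells exposed 24 h to compound dilution series in human serum AB. DC50 derived from a Hill-slope fit of % degradation versus concentration.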
Background: TR-FRET usually uses a lanthanide donor and a delayed reading to cut background.

[3] abbreviates: 5 h treatment, read-out: IRAK4 in Karpas-299 (5 h) Dmax (%).
[4] abbreviates: 5 h treatment, read-out: IRAK4 in Karpas-299 (5 h) DC50.
Setting [5] is: 24 h treatment, read-out: IRAK4 in Karpas-299 (24 h) Dmax (%).
Setting [6] is: 24 h treatment, read-out: IRAK4 in Karpas-299 (24 h) DC50.

With `Cc1cc(C2CCC(=O)NC2=O)c(F)cc1[C@H]1C[C@@H](N2CCN([C@H]3CC[C@H](n4cc5cc(NC(=O)c6ccc7cc(C#N)cnn67)c(C(C)(C)O)cc5n4)CC3)CC2)C1` (stereo partly drawn) [Example 296, 3-cyano-N-(2-((1R,4r)-4-(4-((1s,3S)-3-(4-(2,6-dioxopiperidin-3-yl)-5-fluoro-2-methylphenyl)cyclobutyl)piperazin-1-yl)cyclohexyl)-6-(2-hydroxypropan-2-yl)-2H-indazol-5-yl)pyrrolo[1,2-b]pyridazine-7-carboxamide], the figures for the Dmax at IRAK4 [1] (setting [3]), on IRAK4 [1] (setting [5]) and at IRAK4 [2] were 91%, 97% and 100%, respectively. For the same compound, the figures for the DC50 on IRAK4 [1] (setting [4]), on IRAK4 [1] (setting [6]) and on IRAK4 [2] were 5.4 nM, 1.8 nM and 18 nM, respectively.

Regarding `Cc1cc(C2CCC(=O)NC2=O)c(F)cc1[C@H]1C[C@H](N2CCN([C@H]3CC[C@H](n4cc5cc(NC(=O)c6ccc7cc(C#N)cnn67)c(C(C)(C)O)cc5n4)CC3)CC2)C1` (stereo partly drawn) [Example 297, 3-cyano-N-(2-((1R,4r)-4-(4-((1r,3R)-3-(4-(2,6-dioxopiperidin-3-yl)-5-fluoro-2-methylphenyl)cyclobutyl)piperazin-1-yl)cyclohexyl)-6-(2-hydroxypropan-2-yl)-2H-indazol-5-yl)pyrrolo[1,2-b]pyridazine-7-carboxamide], the Dmax at IRAK4 [1] (setting [3]) was determined as 96%; at IRAK4 [1] (setting [5]), 97%; at IRAK4 [2], 99%. Besides, the DC50 on IRAK4 [1] (setting [4]) is 3.4 nM; at IRAK4 [1] (setting [6]), 1.4 nM; at IRAK4 [2], 6 nM.

With `C[C@@H]1CN(CC2CN(c3cc(F)c([C@H]4CCC(=O)NC4=O)c(F)c3)C2)CCN1[C@H]1CC[C@H](n2cc3cc(NC(=O)c4ccc5cc(C#N)cnn45)c(C(C)(C)O)cc3n2)CC1` [Example 300, 3-cyano-N-(2-((1R,4r)-4-((R)-4-((1-(4-((R)-2,6-dioxopiperidin-3-yl)-3,5-difluorophenyl)azetidin-3-yl)methyl)-2-methylpiperazin-1-yl)cyclohexyl)-6-(2-hydroxypropan-2-yl)-2H-indazol-5-yl)pyrrolo[1,2-b]pyridazine-7-carboxamide], the values for the Dmax on IRAK4 [1] (setting [5]) and at IRAK4 [2] were 96% and 102%, respectively. The DC50 worked out at 0.9 nM on IRAK4 [1] (setting [6]) and 2.4 nM at IRAK4 [2].

As to `C[C@@H]1CN(C(=O)C2CN(c3cc(F)c(N4CCC(=O)NC4=O)c(F)c3)C2)CCN1[C@H]1CC[C@H](n2cc3cc(NC(=O)c4ccc5cc(C#N)cnn45)c(C(C)(C)O)cc3n2)CC1` [Example 303, 3-cyano-N-(2-((1R,4r)-4-((R)-4-(1-(4-(2,4-dioxotetrahydropyrimidin-1(2H)-yl)-3,5-difluorophenyl)azetidine-3-carbonyl)-2-methylpiperazin-1-yl)cyclohexyl)-6-(2-hydroxypropan-2-yl)-2H-indazol-5-yl)pyrrolo[1,2-b]pyridazine-7-carboxamide], the Dmax at IRAK4 [1] (setting [5]) and at IRAK4 [2] was 101% throughout. For the same compound, the DC50 amounted to 0.4 nM on IRAK4 [1] (setting [6]) and 16 nM on IRAK4 [2].

For the compound `C[C@H]1CN(CCc2cc(F)c([C@H]3CCC(=O)NC3=O)c(F)c2)CCN1[C@H]1CC[C@H](n2cc3cc(NC(=O)c4ccc5cc(C#N)cnn45)c(C(C)(C)O)cc3n2)CC1` [Example 305, 3-cyano-N-(2-((1S,4r)-4-((S)-4-(4-((R)-2,6-dioxopiperidin-3-yl)-3,5-difluorophenethyl)-2-methylpiperazin-1-yl)cyclohexyl)-6-(2-hydroxypropan-2-yl)-2H-indazol-5-yl)pyrrolo[1,2-b]pyridazine-7-carboxamide], the values for the Dmax on IRAK4 [1] (setting [5]) and at IRAK4 [2] were 96% and 99%, respectively. The DC50 on IRAK4 [1] (setting [6]) was determined as 1.7 nM; on IRAK4 [2], 5.1 nM.
